Measured values taken from patent US20100048462A1, “TRUNCATED PTH PEPTIDES WITH A CYCLIC CONFORMATION” (Zealand Pharma A/S, priority 2006, published 2010).

Target: T1, PTH receptor 1 (Mus musculus, UniProt P41593)
T1 construct: host or cells: MC3T3-E1 subclone 4
T1 sequence (P41593 27-591): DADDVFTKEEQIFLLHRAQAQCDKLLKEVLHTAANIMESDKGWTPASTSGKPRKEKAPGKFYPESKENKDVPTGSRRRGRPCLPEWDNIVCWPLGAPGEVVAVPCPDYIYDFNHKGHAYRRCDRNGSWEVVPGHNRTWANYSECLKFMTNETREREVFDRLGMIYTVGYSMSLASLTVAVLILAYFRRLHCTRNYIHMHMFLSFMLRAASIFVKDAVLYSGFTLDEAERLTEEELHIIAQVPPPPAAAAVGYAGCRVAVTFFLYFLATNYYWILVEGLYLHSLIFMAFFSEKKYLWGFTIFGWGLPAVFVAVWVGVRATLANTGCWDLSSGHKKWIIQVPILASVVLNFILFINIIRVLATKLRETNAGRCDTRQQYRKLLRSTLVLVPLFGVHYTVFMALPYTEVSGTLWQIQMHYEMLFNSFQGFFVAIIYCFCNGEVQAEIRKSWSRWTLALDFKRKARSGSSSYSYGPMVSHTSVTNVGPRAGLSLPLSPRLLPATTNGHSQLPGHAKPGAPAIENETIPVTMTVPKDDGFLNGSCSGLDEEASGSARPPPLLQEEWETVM
Test: MC3T3-E1 cAMP efficacy assay
Type: cell-based, murine
Settings: MC3T3-E1 cells
Procedure: MC3T3-E1 cells were seeded at 10,000 cells/well in 96-microtiter plates and grown overnight before the efficacy assays. On the day of analysis the growth medium was carefully removed by suction. Cells were washed once with 200 μl TB/0.1% […]. The buffer was replaced with 100 μl reaction mixture (±test peptide, +100 μM IBMX) and incubated at 37° C. for 13 min. The reaction was stopped by addition of 25 μl of ice-cold 0.5 M HCl. Cells were in the following incubated on ice for 60 min. 75 μl acetate-buffer were added to each well in a 96-well cAMP FlashPlate. […] FlashPlates were incubated overnight at 4° C., emptied by suction and counted in a TopCounter.
Determinations were performed in triplicates at all doses. Standards were included as single determinations, duplicates or triplicates in each experiment, preferentially on each plate.
Efficacy was evaluated in the concentration range from […].
Concentration-dependent cAMP responses were imported into GraphPad Prism vers. 4, transformed and plotted. Curves were fitted with a function for sigmoidal dose response curve non-linear fit Y=Bottom+(Top-Bottom)/(1+10̂((LogEC50-X))) where X is the logarithm of concentration and Y is the response. Y starts at Bottom and goes to Top with a sigmoid shape. pEC50 and the maximally inducible concentration of cAMP were evaluated. Overall statistical differences were analyzed using one-way ANOVA. Post-hoc comparisons were made by the use of Fisher's Least Significance Test. Results were considered significant, when p was lower than 0.05.

CC[C@H](C)[C@H](NC(=O)[C@H](CCC(=O)O)NC(=O)[C@H](CO)NC(=O)[C@@H](NC(=O)[C@@H](N)CO)C(C)C)C(=O)N[C@@H](CCC(N)=O)C(=O)N[C@@H](CC(C)C)C(=O)N[C@@H](CCSC)C(=O)N[C@@H](Cc1c[nH]cn1)C(=O)N[C@@H](CC(N)=O)C(=O)N[C@@H](CC(C)C)C(=O)NCC(=O)N[C@@H](CCCCN)C(=O)N[C@@H](Cc1c[nH]cn1)C(=O)N[C@@H](CC(C)C)C(=O)N[C@@H](CC(N)=O)C(=O)N[C@@H](CO)C(=O)N[C@@H](CCSC)C(=O)N[C@@H](CCC(=O)O)C(=O)N[C@@H](CCCNC(=N)N)C(=O)N[C@H](C(=O)N[C@@H](CCC(=O)O)C(=O)N[C@@H](Cc1c[nH]c2ccccc12)C(=O)N[C@@H](CC(C)C)C(=O)N[C@@H](CCCNC(=N)N)C(=O)N[C@@H](CCCCN)C(=O)N[C@@H](CCCCN)C(=O)N[C@@H](CC(C)C)C(=O)N[C@@H](CCC(N)=O)C(=O)N[C@@H](CC(=O)O)C(=O)N[C@H](C(=O)N[C@@H](Cc1c[nH]cn1)C(=O)N[C@@H](CC(N)=O)C(=O)N[C@@H](Cc1ccccc1)C(=O)O)C(C)C)C(C)C [SEQ ID NO: 32, reference compound]
agonism on PTH receptor cAMP signalling: robust cAMP response | Emax ± SEM [pmol/well] (maximally inducible cAMP): 4.4 ± 0.4 pmol/well
